Assay results as given in US4965280A, “Antifungal carbinols” (E. I. Du Pont de Nemours and Company, priority 1989, dated 1990).

What was measured:
G4646 CORN = test: Test D Corn and Sorghum Herbicide Test; assay type: in vivo, Zea mays
LARGE CRABGRASS = test: Test D; assay type: in vivo, Digitaria sanguinalis
BARNYARDGRASS = test: Test D; assay type: in vivo, Echinochloa crus-galli
Description: (§1) The Corn and Sorghum Herbicide Test included the following species in both the preemergence and postemergence evaluations:
(§2) Postemergence plantings were grown in Sassafras sandy loam soil. Corn and soybeans were grown in separate 25 cm diameter containers. Sorghum and the seven grass weed species were grown in two 18 cm diameter containers, 4 species per container. The seven broadleaf weed species were also grown in two 18 cm diameter containers, 4 species in one container, 3 species in the second container. One additional planting of corn in an 18 cm diameter container was made. The soil surface of this additional container of corn was covered with the absorbent, perlite, before spray treatment so that test chemicals would enter the plant only via the foliage. The plants were grown 10-21 days, dependent upon the species and then sprayed postemergence with the test chemicals dissolved in a nonpytotoxic solvent.
(§3) Preemergence plantings were grown in fertilized Tama silt loam soil. These plantings are identical to those described in the postemergence section, with the exception of the corn planting having perlite covering the soil surface. These plantings were made the day of or the day before spraying the test chemicals dissolved in a nonphytotoxic solvent.
(§4) Treated plants and controls were maintained in the greenhouse for 2 to 4 weeks. Visual planting response ratings were made on a percentage scale of 0 to 100 in comparison with a control where 0=no injury, and 100=death.

JOHNSONGRASS = test: Test D; assay type: in vivo, Sorghum halepense
G522 SORGHUM = test: Test D; assay type: in vivo, Sorghum bicolor
COCKLEBUR = test: Test D; assay type: in vivo, Xanthium pensylvanicum
LADY SMARTWEED = test: Test D; assay type: in vivo, Polygonum persicaris
Description: as §1, §2, §3, §4

IVY MORNINGLORY = test: Test D; assay type: in vivo, Ipomoea hederacea
JIMSONWEED = test: Test D; assay type: in vivo, Datura stramonium
PERLITE CORN = test: Test D, soil covered with perlite; assay type: in vivo, Zea mays
Description: as §1, §2, §4

Measured: plant response

C=C(c1ccccc1Cl)C(O)(Cn1cncn1)c1ccc(Cl)cc1Cl (stereo not drawn) [Example 33, 2-(2,4-Dichlorophenyl)-3-(2-chlorophenyl)-1-(1H-1,2,4-triazol-1-yl)-3-buten-2-ol]
0%: G4646 CORN; POSTEMERGENCE 0250 GM/HA | G4646 CORN; POSTEMERGENCE 0500 GM/HA | G4646 CORN; POSTEMERGENCE 1000 GM/HA | G4646 CORN; PREEMERGENCE 0250 GM/HA | G4646 CORN; PREEMERGENCE 0500 GM/HA | G4646 CORN; PREEMERGENCE 1000 GM/HA | LARGE CRABGRASS; POSTEMERGENCE 0250 GM/HA | LARGE CRABGRASS; POSTEMERGENCE 0500 GM/HA | LARGE CRABGRASS; POSTEMERGENCE 1000 GM/HA | LARGE CRABGRASS; PREEMERGENCE 0250 GM/HA | LARGE CRABGRASS; PREEMERGENCE 0500 GM/HA | LARGE CRABGRASS; PREEMERGENCE 1000 GM/HA | BARNYARDGRASS; POSTEMERGENCE 0250 GM/HA | BARNYARDGRASS; POSTEMERGENCE 0500 GM/HA | BARNYARDGRASS; POSTEMERGENCE 1000 GM/HA | BARNYARDGRASS; PREEMERGENCE 0250 GM/HA | BARNYARDGRASS; PREEMERGENCE 0500 GM/HA | BARNYARDGRASS; PREEMERGENCE 1000 GM/HA | JOHNSONGRASS; POSTEMERGENCE 0250 GM/HA | JOHNSONGRASS; POSTEMERGENCE 0500 GM/HA | JOHNSONGRASS; POSTEMERGENCE 1000 GM/HA | JOHNSONGRASS; PREEMERGENCE 0250 GM/HA | JOHNSONGRASS; PREEMERGENCE 0500 GM/HA | JOHNSONGRASS; PREEMERGENCE 1000 GM/HA | G522 SORGHUM; POSTEMERGENCE 0250 GM/HA | G522 SORGHUM; POSTEMERGENCE 0500 GM/HA | G522 SORGHUM; POSTEMERGENCE 1000 GM/HA | G522 SORGHUM; PREEMERGENCE 0250 GM/HA | G522 SORGHUM; PREEMERGENCE 0500 GM/HA | G522 SORGHUM; PREEMERGENCE 1000 GM/HA | COCKLEBUR; POSTEMERGENCE 0250 GM/HA | COCKLEBUR; POSTEMERGENCE 0500 GM/HA | COCKLEBUR; POSTEMERGENCE 1000 GM/HA | COCKLEBUR; PREEMERGENCE 0250 GM/HA | COCKLEBUR; PREEMERGENCE 0500 GM/HA | COCKLEBUR; PREEMERGENCE 1000 GM/HA | LADY SMARTWEED; POSTEMERGENCE 0250 GM/HA | LADY SMARTWEED; POSTEMERGENCE 0500 GM/HA | LADY SMARTWEED; POSTEMERGENCE 1000 GM/HA | LADY SMARTWEED; PREEMERGENCE 0250 GM/HA | LADY SMARTWEED; PREEMERGENCE 0500 GM/HA | LADY SMARTWEED; PREEMERGENCE 1000 GM/HA | IVY MORNINGLORY; POSTEMERGENCE 0250 GM/HA | IVY MORNINGLORY; POSTEMERGENCE 0500 GM/HA | IVY MORNINGLORY; POSTEMERGENCE 1000 GM/HA | IVY MORNINGLORY; PREEMERGENCE 0250 GM/HA | IVY MORNINGLORY; PREEMERGENCE 0500 GM/HA | IVY MORNINGLORY; PREEMERGENCE 1000 GM/HA | JIMSONWEED; POSTEMERGENCE 0250 GM/HA | JIMSONWEED; POSTEMERGENCE 0500 GM/HA | JIMSONWEED; POSTEMERGENCE 1000 GM/HA | JIMSONWEED; PREEMERGENCE 0250 GM/HA | JIMSONWEED; PREEMERGENCE 0500 GM/HA | JIMSONWEED; PREEMERGENCE 1000 GM/HA | PERLITE CORN; POSTEMERGENCE 0250 GM/HA | PERLITE CORN; POSTEMERGENCE 0500 GM/HA | PERLITE CORN; POSTEMERGENCE 1000 GM/HA
